Reference: patent publication US20250084074A1, “SUBSTITUTED HETEROCYCLES AS HSET INHIBITORS” (MERCK PATENT GMBH, priority 2022, published 2025)
Counter-ions that a name gives are not always drawn.

These molecules were tested against HSET full length protein (Homo sapiens (Human), UniProt Q9BW19) (assay: HSET ADP-Glo Assay S - 3 μM ATP). Settings: 5 nM HSET, 70 μg/mL microtubule, 80 min at rt, read-out: COMBINED HSET ADP GLO IC50.
Sequence of HSET full length protein (Q9BW19 whole entry): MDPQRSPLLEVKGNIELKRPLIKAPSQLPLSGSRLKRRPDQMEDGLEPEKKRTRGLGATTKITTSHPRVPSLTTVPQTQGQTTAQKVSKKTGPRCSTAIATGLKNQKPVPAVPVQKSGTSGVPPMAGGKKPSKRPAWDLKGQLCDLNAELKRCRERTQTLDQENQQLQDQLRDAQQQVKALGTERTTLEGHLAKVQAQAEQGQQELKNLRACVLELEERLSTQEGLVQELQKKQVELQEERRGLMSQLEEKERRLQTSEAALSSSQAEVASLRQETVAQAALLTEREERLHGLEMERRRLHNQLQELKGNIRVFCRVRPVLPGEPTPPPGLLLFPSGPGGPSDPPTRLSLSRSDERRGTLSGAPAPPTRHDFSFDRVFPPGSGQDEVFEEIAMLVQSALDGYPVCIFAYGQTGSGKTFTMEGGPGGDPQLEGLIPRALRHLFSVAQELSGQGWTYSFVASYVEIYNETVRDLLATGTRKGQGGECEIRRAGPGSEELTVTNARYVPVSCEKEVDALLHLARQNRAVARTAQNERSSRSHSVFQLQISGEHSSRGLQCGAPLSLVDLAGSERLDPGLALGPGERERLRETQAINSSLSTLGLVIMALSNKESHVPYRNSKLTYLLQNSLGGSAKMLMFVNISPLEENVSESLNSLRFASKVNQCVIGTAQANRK
Format: biochemical
Method in brief: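 Full-length human HSET (5 nM) with paclitaxel-stabilised bovine brain microtubules (70 μg/mL) in HEPES pH 6.8 buffer was preincubated 10 min with compound. ATP at 3 μM started the reaction, which ran 80 min at rt. ADP formed was measured by ADP-Glo luminescence.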
In the case of CCCOC(=O)c1sc(NC(=O)[C@H](CNC(=O)c2cccc(-c3noc(C)n3)c2)N(C)C)nc1C [Example 175, Propyl (S)-2-(2-(dimethylamino)-3-(3-(5-methyl-1,2,4-oxadiazol-3-yl)benzamido)propanamido)-4-methylthiazole-5-carboxylate formate], the IC50 is reported as 335 nM. For CCCOC(=O)c1sc(NC(=O)[C@H](O)CNc2nccc3ccc(-c4noc(C)n4)cc23)nc1C [Example 176, Propyl (R)-2-(2-hydroxy-3-((7-(5-methyl-1,2,4-oxadiazol-3-yl)isoquinolin-1-yl)amino)propanamido)-4-methylthiazole-5-carboxylate], the IC50 was 1 nM. For Cc1nc(-c2ccc3ccnc(NC[C@@H](O)C(=O)Nc4nc(C)c(C(=O)OC(C)(C)C)s4)c3c2)no1 [Example 177, tert-Butyl (R)-2-(2-hydroxy-3-((7-(5-methyl-1,2,4-oxadiazol-3-yl)isoquinolin-1-yl)amino)propanamido)-4-methylthiazole-5-carboxylate], the IC50 was 2 nM. For CCCOC(=O)c1sc(NC(=O)[C@@H](O)CNc2nccc3ccc(-c4noc(C)n4)cc23)nc1C [Example 178, Propyl (S)-2-(2-hydroxy-3-((7-(5-methyl-1,2,4-oxadiazol-3-yl)isoquinolin-1-yl)amino)propanamido)-4-methylthiazole-5-carboxylate], the IC50 was 2 nM. Work on Cc1nc(-c2ccc3ccnc(NC[C@H](O)C(=O)Nc4nc(C)c(CC(C)C)s4)c3c2)no1 [Example 179, (S)-2-hydroxy-N-(5-isobutyl-4-methylthiazol-2-yl)-3-((7-(5-methyl-1,2,4-oxadiazol-3-yl)isoquinolin-1-yl)amino)propenamide] yielded an IC50 of 43 nM. Cc1nc(-c2ccc3ccnc(NC[C@H](O)C(=O)Nc4nc(C)c(C(=O)OC(C)(C)C)s4)c3c2)no1 [Example 180, tert-Butyl (S)-2-(2-hydroxy-3-((7-(5-methyl-1,2,4-oxadiazol-3-yl)isoquinolin-1-yl)amino)propanamido)-4-methylthiazole-5-carboxylate] showed an IC50 of 2 nM. Cc1nc(NC(=O)[C@@H](O)CNc2nccc3ccc(-c4cnn(C)c4)cc23)sc1C(=O)OC(C)(C)C [Example 181, tert-Butyl (S)-2-(2-hydroxy-3-((7-(1-methyl-1 H-pyrazol-4-yl)isoquinolin-1-yl)amino)propanamido)-4-methylthiazole-5-carboxylate] showed an IC50 of 14 nM. CCCc1nc(-c2cc(NC(=O)[C@@H](O)CNc3nccc4ccc(-c5noc(C)n5)cc34)nn2C)no1 [Example 182, (S)-2-hydroxy-3-((7-(5-methyl-1,2,4-oxadiazol-3-yl)isoquinolin-1-yl)amino)-N-(1-methyl-5-(5-propyl-1,2,4-oxadiazol-3-yl)-1 H-pyrazol-3-yl)propenamide] showed an IC50 of 57 nM. In the case of CCCc1nc(-c2cc(NC(=O)[C@@H](O)CNc3nccc4ccc(C)cc34)nn2C)no1 [Example 183, (S)-2-hydroxy-N-(1-methyl-5-(5-propyl-1,2,4-oxadiazol-3-yl)-1 H-pyrazol-3-yl)-3-((7-methylisoquinolin-1-yl)amino)propanamide], the IC50 is reported as 17300 nM. For Cc1ccc2ccnc(NC[C@@H](O)C(=O)Nc3nc(C)c(C(=O)OC(C)(C)C)s3)c2c1 [Example 184, tert-Butyl (R)-2-(2-hydroxy-3-((7-methylisoquinolin-1-yl)amino)propanamido)-4-methylthiazole-5-carboxylate], the IC50 was 34 nM. Molecule Cc1ccc2ccnc(NC[C@H](O)C(=O)Nc3nc(C)c(C(=O)OC(C)(C)C)s3)c2c1 [Example 185, tert-Butyl (S)-2-(2-hydroxy-3-((7-methylisoquinolin-1-yl)amino)propanamido)-4-methylthiazole-5-carboxylate] has an IC50 of 20 nM. In the case of CCCOC(=O)c1sc(NC(=O)[C@H](CNc2nccc3ccc(-c4noc(C)n4)cc23)OC)nc1C [Example 186, Propyl (S)-2-(2-methoxy-3-((7-(5-methyl-1,2,4-oxadiazol-3-yl)isoquinolin-1-yl)amino)propanamido)-4-methylthiazole-5-carboxylate], the IC50 is reported as 30 nM. Cc1nc(-c2ccc3ccnc(NC[C@H](O)C(=O)Nc4nc(C)c(C(C)(C)C)s4)c3c2)no1 [Example 187, (S)-N-(5-(tert-butyl)-4-methylthiazol-2-yl)-2-hydroxy-3-((7-(5-methyl-1,2,4-oxadiazol-3-yl)isoquinolin-1-yl)amino)propenamide] was tested, and the IC50 was 52 nM. Work on CCCCCc1cc(NC(=O)[C@@H](O)CNc2nccc3ccc(-c4noc(C)n4)cc23)nn1C [Example 188, (S)-2-hydroxy-3-((7-(5-methyl-1,2,4-oxadiazol-3-yl)isoquinolin-1-yl)amino)-N-(1-methyl-5-pentyl-1 H-pyrazol-3-yl)propenamide] yielded an IC50 of 270 nM. With CCCCCc1cc(NC(=O)[C@H](O)CNc2nccc3ccc(-c4noc(C)n4)cc23)nn1C [Example 189, (R)-2-hydroxy-3-((7-(5-methyl-1,2,4-oxadiazol-3-yl)isoquinolin-1-yl)amino)-N-(1-methyl-5-pentyl-1 H-pyrazol-3-yl)propenamide] the IC50 was 616 nM. Work on Cc1nc(-c2ccc3ccnc(NC[C@@H](O)C(=O)Nc4nc(C)c(C(C)(C)C)s4)c3c2)no1 [Example 190, (R)-N-(5-(tert-butyl)-4-methylthiazol-2-yl)-2-hydroxy-3-((7-(5-methyl-1,2,4-oxadiazol-3-yl)isoquinolin-1-yl)amino)propanamide] yielded an IC50 of 726 nM. Cc1nc(-c2ccc3ccnc(NC[C@@H](O)C(=O)Nc4nc(C)c(CC(C)C)s4)c3c2)no1 [Example 191, (R)-2-hydroxy-N-(5-isobutyl-4-methylthiazol-2-yl)-3-((7-(5-methyl-1,2,4-oxadiazol-3-yl)isoquinolin-1-yl)amino)propenamide] was tested, and the IC50 was 284 nM. Molecule Cc1nc(-c2ccc3ccnc(NC[C@@H](O)C(=O)Nc4nc(C)c(C5(C(F)(F)F)CC5)s4)c3c2)no1 [Example 192, (R)-2-hydroxy-3-((7-(5-methyl-1,2,4-oxadiazol-3-yl)isoquinolin-1-yl)amino)-N-(4-methyl-5-(1-(trifluoromethyl)cyclopropyl)thiazol-2-yl)propanamide] has an IC50 of 461 nM. Work on Cc1nc(-c2cccc(C(=O)N[C@@H](CC#N)CC(=O)Nc3nc(C)c(C(=O)OC(C)(C)C)s3)c2)no1 [Example 193, tert-Butyl 2-[(3S)-4-cyano-3-{[3-(5-methyl-1,2,4-oxadiazol-3-yl)phenyl]form, amido}-butanamido]-4-methyl-1,3-thiazole-5-carboxylate] yielded an IC50 of 5 nM. In the case of Cc1nc(-c2cccc(C(=O)N[C@H](CC#N)CC(=O)Nc3nc(C)c(C(=O)OC(C)(C)C)s3)c2)no1 [Example 194, tert-Butyl 2-[(3R)-4-cyano-3-{[3-(5-methyl-1,2,4-oxadiazol-3-yl)phenyl]form-amido}butanamido]-4-methyl-1,3-thiazole-5-carboxylate], the IC50 is reported as 96 nM. For Cc1nc(-c2cccc(C(=O)N[C@@H](CC#N)CC(=O)Nc3nc(C)c(C(=O)OC(C)C)s3)c2)no1 [Example 195, Propan-2-yl 2-[(3S)-4-cyano-3-{[3-(5-methyl-1,2,4-oxadiazol-3-yl)phenyl]form-amido}butanamido]-4-methyl-1,3-thiazole-5-carboxylate], the IC50 was 12 nM. With Cc1nc(-c2cccc(C(=O)N[C@H](CC#N)CC(=O)Nc3nc(C)c(C(=O)OC(C)C)s3)c2)no1 [Example 196, Propan-2-yl 2-[(3R)-4-cyano-3-{[3-(5-methyl-1,2,4-oxadiazol-3-yl)phenyl]form-amido}butanamido]-4-methyl-1,3-thiazole-5-carboxylate] the IC50 was 167 nM. Molecule COC(=O)c1sc(NC(=O)C[C@H](CC#N)NC(=O)c2cccc(-c3noc(C)n3)c2)nc1C [Example 197, Methyl 2-[(3S)-4-cyano-3-{[3-(5-methyl-1,2,4-oxadiazol-3-yl)phenyl]formamido}, butanamido]-4-methyl-1,3-thiazole-5-carboxylate] has an IC50 of 135 nM. COC(=O)c1sc(NC(=O)C[C@@H](CC#N)NC(=O)c2cccc(-c3noc(C)n3)c2)nc1C [Example 198] gave an IC50 of 181 nM. Work on Cc1nc(-c2cccc(C(=O)N[C@@H](CC#N)CC(=O)N(C)c3nc(C)c(C(=O)OC(C)C)s3)c2)no1 [Example 199, Propan-2-yl 2-[(3S)-4-cyano-N-methyl-3-{[3-(5-methyl-1,2,4-oxadiazol-3-yl)phenyl]-formamido}butanamido]-4-methyl-1,3-thiazole-5-carboxylate] yielded an IC50 of 10 nM. Molecule Cc1nc(-c2cccc(C(=O)N[C@H](CC#N)CC(=O)N(C)c3nc(C)c(C(=O)OC(C)C)s3)c2)no1 [Example 200, Propan-2-yl 2-[(3R)-4-cyano-N-methyl-3-{[3-(5-methyl-1,2,4-oxadiazol-3-yl)phenyl]-formamido}butanamido]-4-methyl-1,3-thiazole-5-carboxylate] has an IC50 of 295 nM. With Cc1nc(NC(=O)C[C@H](CC#N)NC(=O)c2cccc(-c3cnn(C)c3)c2)sc1C(=O)OC(C)(C)C [Example 201] the IC50 was 410 nM. For Cc1nc(NC(=O)C[C@@H](CC#N)NC(=O)c2cccc(-c3cnn(C)c3)c2)sc1C(=O)OC(C)(C)C [Example 202], the IC50 was 8850 nM. Work on Cc1nc(NC(=O)C[C@H](CC#N)NC(=O)c2cccc(-c3cnn(C)c3)c2)sc1C(=O)OC(C)C [Example 203] yielded an IC50 of 1100 nM. Cc1nc(NC(=O)C[C@@H](CC#N)NC(=O)c2cccc(-c3cnn(C)c3)c2)sc1C(=O)OC(C)C [Example 204] was tested, and the IC50 was 5700 nM. Cc1nc(N(C)C(=O)C[C@H](CC#N)NC(=O)c2cccc(-c3cnn(C)c3)c2)sc1C(=O)OC(C)C [Example 205] gave an IC50 of 4400 nM. Cc1nc(N(C)C(=O)C[C@@H](CC#N)NC(=O)c2cccc(-c3cnn(C)c3)c2)sc1C(=O)OC(C)C [Example 206] was tested, and the IC50 was 9300 nM. For Cc1nc(NC(=O)C[C@H](CC#N)NC(=O)c2cccc(C#N)c2)sc1C(=O)OC(C)C [Example 207, Propan-2-yl 2-[(3S)-4-cyano-3-[(3-cyanophenyl)formamido]butan-amido]-4-methyl-1,3-thiazole-5-carboxylate], the IC50 was 590 nM.
